Experiments:
Assay in all cases: relative viability (nuclei count vs DMSO), 5 days (fraction); higher = more cells survive
[1] = compound: CC1=C(C(=O)N2C=CSC2=N1)CCN3CCC(=C(C4=CC=CC=C4)C5=CC=C(C=C5)F)CC3 + CC1(C)CCC(c2ccc(Cl)cc2)=C(CN2CCN(c3ccc(C(=O)NS(=O)(=O)c4ccc(N[C@H](CCN5CCOCC5)CSc5ccccc5)c(S(=O)(=O)C(F)(F)F)c4)cc3)CC2)C1 [Navitoclax] (partner 0.5 µM)
Procedure, shortened: (§1)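 One day after seeding in 1536-well plates, lung cancer cell lines were dosed by pin tool. Dosing was either single-drug or a fixed anchor-drug dose plus five library-drug doses (not always all listed) in √10 steps. After 5 days, nuclei were stained in one fix-and-stain step and counted on 4× images, and relative viability is the nuclei count of treated wells over that of vehicle wells, given as the median of duplicate plates.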

[2] = compound: CC1=C(C(=O)N2C=CSC2=N1)CCN3CCC(=C(C4=CC=CC=C4)C5=CC=C(C=C5)F)CC3 + O=C(CCCCCCC(=O)Nc1ccccc1)NO [Vorinostat] (partner 1 µM)
Procedure, shortened: as §1

[3] = compound: CC1=C(C(=O)N2C=CSC2=N1)CCN3CCC(=C(C4=CC=CC=C4)C5=CC=C(C=C5)F)CC3 + Cc1nc(Nc2ncc(C(=O)Nc3c(C)cccc3Cl)s2)cc(N2CCN(CCO)CC2)n1 [Dasatinib] (partner 0.075 µM)
Procedure, shortened: as §1

[4] = compound: CC1=C(C(=O)N2C=CSC2=N1)CCN3CCC(=C(C4=CC=CC=C4)C5=CC=C(C=C5)F)CC3 + C[C@@H](Oc1cc(-c2cnn(C3CCNCC3)c2)cnc1N)c1c(Cl)ccc(F)c1Cl [Crizotinib] (partner 1 µM)
Procedure, shortened: as §1

Cell Line | relative viability ([1]; first compound 0.08 µM) | relative viability ([1]; first compound 0.253 µM) | relative viability ([1]; first compound 0.8 µM) | relative viability ([1]; first compound 2.53 µM) | relative viability ([1]; first compound 8 µM) | relative viability ([2]; first compound 0.08 µM) | relative viability ([2]; first compound 0.253 µM) | relative viability ([2]; first compound 0.8 µM) | relative viability ([2]; first compound 2.53 µM) | relative viability ([2]; first compound 8 µM) | relative viability ([3]; first compound 0.08 µM) | relative viability ([3]; first compound 0.253 µM) | relative viability ([3]; first compound 0.8 µM) | relative viability ([3]; first compound 2.53 µM) | relative viability ([3]; first compound 8 µM) | relative viability ([4]; first compound 0.08 µM) | relative viability ([4]; first compound 0.253 µM) | relative viability ([4]; first compound 0.8 µM) | relative viability ([4]; first compound 2.53 µM) | relative viability ([4]; first compound 8 µM)
NCI-H596 | 0.85 | 1.17 | 1.04 | 1.1 | 0.556 | 0.57 | 0.576 | 0.626 | 0.583 | 0.587 | 0.636 | 0.653 | 0.612 | 0.627 | 0.421 | 1.01 | 1.13 | 0.957 | 1.03 | 0.949
NCI-H2087 | 1 | 0.712 | 0.995 | 1.23 | 0.794 | 0.865 | 0.591 | 0.859 | 0.625 | 0.485 | 0.91 | 0.87 | 0.882 | 0.752 | 0.637 | 0.818 | 0.813 | 0.94 | 0.944 | 0.525
A-427 | 1.08 | 0.877 | 0.915 | 0.973 | 0.948 | 0.878 | 0.824 | 0.86 | 0.91 | 0.748 | 0.788 | 0.585 | 0.715 | 0.696 | 0.457 | 0.749 | 0.95 | 0.942 | 0.963 | 0.646
HCC-78 | 0.834 | 0.786 | 0.924 | 0.838 | 0.608 | 0.385 | 0.458 | 0.546 | 0.424 | 0.476 | 0.344 | 0.356 | 0.373 | 0.344 | 0.248 | 0.283 | 0.335 | 0.34 | 0.319 | 0.326
SK-LU-1 | 0.586 | 0.899 | 0.941 | 0.913 | 0.371 | 0.773 | 0.708 | 0.75 | 0.783 | 0.713 | 0.196 | 0.172 | 0.19 | 0.18 | 0.178 | 1.03 | 0.849 | 0.801 | 0.979 | 0.698
NCI-H441 |  | 0.694 | 0.686 | 0.638 | 0.371 | 0.998 | 0.628 | 0.765 | 1.05 | 0.61 | 0.526 | 0.678 | 0.679 | 0.541 | 0.507 |  | 0.866 | 0.773 | 0.872 | 0.549
NCI-H2023 | 0.99 | 0.894 | 0.997 | 1.08 | 1.09 | 0.657 | 0.56 | 0.648 | 0.695 | 0.399 | 0.549 | 0.58 | 0.602 | 0.513 | 0.363 | 0.69 | 0.566 | 0.725 | 0.649 | 0.563
NCI-H23 | 0.722 | 0.862 | 0.776 | 0.863 | 0.489 | 0.665 | 0.564 | 0.473 | 0.572 | 0.32 | 0.659 | 0.674 | 0.867 | 0.703 | 0.518 | 0.467 | 0.505 | 0.454 | 0.372 | 0.404
COR-L23 | 0.895 | 1.06 | 1.04 | 1.47 | 0.525 | 0.438 | 0.365 | 0.46 | 0.421 | 0.405 | 0.383 | 0.341 | 0.457 | 0.59 | 0.403 | 0.503 | 0.758 | 0.608 | 0.649 | 0.419
NCI-H1993 | 0.954 |  | 1.12 | 1.05 | 0.917 | 0.87 | 0.715 | 0.885 | 0.92 | 0.756 | 0.513 | 0.533 | 0.559 | 0.596 | 0.507 | 0.708 |  | 0.796 | 0.906 | 0.832
COR-L 105 | 0.765 | 0.708 | 0.724 | 0.808 | 0.634 | 0.58 | 0.738 | 0.882 | 1.29 | 0.607 | 0.416 | 0.32 | 0.241 | 0.372 | 0.294 | 0.676 | 0.809 | 0.641 | 0.836 | 0.786
NCI-H2405 | 0.892 | 0.968 | 1.08 | 0.962 | 0.705 | 1.18 |  | 1.08 | 1.06 | 0.789 | 0.23 | 0.223 | 0.208 | 0.186 | 0.184 | 0.817 | 0.788 | 0.871 | 0.858 | 0.725
